{"source": "patent US9907790B2", "about": "“Solid forms of an ASK1 inhibitor” (Gilead Sciences, Inc., priority 2014, dated 2018)", "key": {"[1]": {"test": "Competition slurries between crystalline forms", "format": "physicochemical", "conditions": "ethanol, agitating overnight"}, "[2]": {"test": "Form change on heating, drying or exposure to ambient conditions", "format": "physicochemical", "conditions": "ambient temperature and humidity / storage at ambient conditions", "text": "Form V has only been truly isolated by growth of single crystals.\nIsolated solids were dried with filter paper to remove residual solvents and analyzed by DSC, TGA and KF. […] (FIG. 45).\nThe sample was stirred for more than two months before being placed into storage without agitation and at ambient conditions. […] The material was collected by vacuum filtration and dried under ambient conditions. […] (FIG. 48)."}}}
{"smiles": "Cc1cc(F)c(C(=O)Nc2cccc(-c3nncn3C(C)C)n2)cc1-n1cnc(C2CC2)c1", "note": "[Compound I Form VII, 5-(4-cyclopropyl-1H-imidazol-1-yl)-N-(6-(4-isopropyl-4H-1,2,4-triazol-3-yl)pyridin-2-yl)-2-fluoro-4-methylbenzamide]", "values": [{"measurement": "outcome of competitive slurry with Compound I Form I", "setting": "[1]", "result": "full conversion of Compound I Form VII to Compound I Form I"}, {"measurement": "form change at ambient conditions", "setting": "[2]", "result": "rapidly converts back to Compound I Form IV"}]}
